Results as given in patent publication US6462089B1, “Method for correcting the vigilance disorders associated with myopathies” (priority 2000, dated 2002).

How the values were obtained:
[1] = system: c-fos proto-oncogene; details: cats, awakening doses; Lin et al. PNAS 1996; cited from earlier work
[2] = system: patients suffering from Steinert's disease (myotonic dystrophy); details: cited from earlier work
[3] = system: patients suffering from myotonic dystrophy; experiment: Oral modafinil treatment of a series of patients with myotonic dystrophy and diurnal hypersomnia, subjective effect; assay type: in vivo, human; details: oral doses of between 100 and 400 mg/day; majority of patients
[4] = system: patient suffering from Steinert's disease; experiment: Epworth somnolence scale in a patient suffering from Steinert's disease; assay type: in vivo, human; details: score before treatment 20
Description: By way of example, in a patient suffering from Steinert's disease, which is characterized, inter alia, by a temporal atrophy, ptosis, a myotony associated with muscle weakness, behavioural disorders and somnolence (the start of which went back to 1988) with sleep paralyses, without hypnogogic hallucinations or attacks of cataplexy, a decrease was observed of 18 units on the Epworth somnolence scale (see Johns M. W. Sleep, 1991, 14, 540) after treatment with an oral dose of 100 mg per day of modafinil for six months, between February 1999 (score on the Epworth scale=20) and August 1999 (score on the Epworth scale=2).

[5] = system: patients suffering from Steinert's disease; experiment: Karolinska KSS somnolence scale in patients suffering from Steinert's disease; assay type: in vivo, human
Excerpt: In the second patient of this series, the telling morphotype and a myotony of both hands associated with muscular deficiency existed. Without treatment, diurnal hypersomnia was very pronounced (Epworth scale: 16).

[6] = system: dopamine; details: within the dose ranges which modify consciousness; cited from earlier work
[7] = cited from earlier work

SMILES: C[C@H](N)Cc1ccccc1 [d-amphetamine]
- expression of c-fos proto-oncogene in the central dopaminergic projection zones (including the cortex) [1]: highly expressed

SMILES: COC(=O)C(c1ccccc1)C1CCCCN1 (stereo not shown) [methylphenidate]
- expression of c-fos proto-oncogene in the central dopaminergic projection zones (including the cortex) [1]: highly expressed
- level of consciousness ([2]; Van der Meché et al. 1986): improvement in the level of consciousness was observed

SMILES: NC(=O)C[S+]([O-])C(c1ccccc1)c1ccccc1 (stereo not shown) [modafinil, benzhydrylsulphinylacetamide]
- expression of c-fos proto-oncogene in the central dopaminergic projection zones (including the cortex) [1]: not expressed
- effect of treatment on vigilance disorders and diurnal somnolence [3]: subjectively effective
- score on the Epworth scale after treatment ([4]; oral dose of 100 mg per day for six months (August 1999)): 2
- decrease on the Epworth somnolence scale ([4]; oral dose of 100 mg per day for six months): 18 units
- personal and professional daily life ([5]; patient, dose 200 mg/day): considerable improvement
- somnolence score on the Karolinska KSS scale after treatment ([5]; patient, dose 200 mg/day, before: 8): 2
- diurnal somnolence attacks ([5]; second patient, dose 600 mg/day): partial resolution
- somnolence score on the Karolinska scale after treatment ([5]; second patient, dose 600 mg/day, before: 8): 4
- effect on dopamine [6]: no effect
- generalization of the effects with amphetamine ([7]; addictive substance discrimination tests): very weak
- self-administration and preference of place ([7]; in vivo): leads neither to self-administration nor to preference of place
- self-administration of cocaine ([7]; in vivo): does not modify

SMILES: C#CCN(C)[C@H](C)Cc1ccccc1 [selegiline]
- effectiveness on diurnal hypersomnolence ([2]; dose of 20 mg/day, Antonini et al. 1997): ineffective
